This test deals with U23674 (mouse alveolar rhabdomyosarcoma primary culture).
As to `CCNC(=O)O[C@H]1CN[C@H](C#Cc2cc3ncnc(Nc4ccc(OCc5cccc(F)c5)c(Cl)c4)c3s2)C1`, the IC50 cell viability is > 10 µM.

For the compound `CCn1c(-c2nonc2N)nc2cnc(Oc3cccc(NC(=O)c4ccc(N(C)C)cc4)c3)cc21`, the IC50 cell viability was > 10 µM.

For `O=C(O[C@H]1CN[C@H](C#Cc2cc3ncnc(Nc4ccc(Cc5ccccc5)cc4)c3s2)C1)N1CCOCC1`, the IC50 cell viability is > 10 µM.

Consider `COc1cc2ncn(-c3cc(OCCc4ccccc4)c(C(N)=O)s3)c2cc1OC`, for which the IC50 cell viability is > 10 µM.

Regarding `Cc1cc(Cl)cc2c(N=Nc3ccc(S(N)(=O)=O)cc3)c(O)[nH]c12`, the IC50 cell viability was > 10 µM.

For `O=C(Nc1ccc(Oc2ccc3nc(NC(=O)c4ccccc4)[nH]c3c2)cc1)Nc1cc(C(F)(F)F)ccc1F`, the IC50 cell viability was > 10 µM.

Take `COC(=O)c1sc(-n2cnc3cc(OC)c(OC)cc32)cc1OCc1ccccc1C(F)(F)F`: the IC50 cell viability was > 10 µM.

As to `N#Cc1ccc2c(-c3ccnc(NC4CC4)n3)c(-c3ccc(F)cc3)nn2c1`, the IC50 cell viability is > 10 µM.

Turning to `Cc1ccc(Nc2ccnc(Nc3cccc(C(N)=O)c3)n2)cc1O`, the IC50 cell viability was > 10 µM.

Regarding `NS(=O)(=O)c1cccc(-c2cc3ccncc3cc2OCc2ccccc2)c1`, the IC50 cell viability is > 10 µM.

For `CN(C)c1cc2c(Nc3ccc4nc(Cc5ccccc5)[nH]c4c3)ncnc2cn1`, the IC50 cell viability is > 10 µM.

For the compound `Cc1cccc2c(N=Nc3ccc(S(N)(=O)=O)cc3)c(O)[nH]c12`, the IC50 cell viability was > 10 µM.

As for `ON=C1CCc2cc(-c3nc(C4CCNCC4)[nH]c3-c3ccncc3)ccc21`, the IC50 cell viability was > 10 µM.

As to `COc1ccc2cc(-c3c(-c4ccncc4)nc(-c4ccc([S+](C)[O-])cc4C)n3C)ccc2c1` (configuration not stated), the IC50 cell viability was > 10 µM.

Regarding `COc1cc(/C=N/Nc2ncnc3c2cnn3C(C)C)ccc1O`, the IC50 cell viability was > 10 µM.

Consider `COc1ccc(Nc2ncc(-c3ccccc3)o2)cc1OC`, for which the IC50 cell viability was > 10 µM.

For the compound `CCS(=O)(=O)c1ccc(OC)c(Nc2nccc(N(C)c3ccc4c(C)[nH]nc4c3)n2)c1`, the IC50 cell viability was > 10 µM.

Consider `CCn1c(-c2nonc2N)nc2c(C#CC(C)(C)O)nc(CN3CCCC3)cc21`, for which the IC50 cell viability is > 10 µM.

On to `Nc1nc(-c2cccc(Cl)c2)c(-c2ccc3ncccc3n2)s1`, for which the IC50 cell viability is > 10 µM.

`COC(=O)Nc1nc2ccc(Oc3cccc(NC(=O)Nc4cc(C(F)(F)F)ccc4F)c3)cc2[nH]1`: the IC50 cell viability was > 10 µM.

For the compound `Cn1cc(C=C2C(=O)Nc3cccnc32)c2ccccc21`, the IC50 cell viability was > 10 µM.

Take `COc1cc2ncn(-c3cc(OCc4ccccc4Cl)c(C(N)=O)s3)c2cc1OC`: the IC50 cell viability was > 10 µM.

Regarding `Fc1ccc(-c2ncn(C3CCNCC3)c2-c2ccnc(Oc3ccc4c(c3)OCO4)n2)cc1`, the IC50 cell viability was > 10 µM.

As for `CC1=C(C(=O)Nc2ccc3[nH]ncc3c2)C(c2ccc3ccccc3c2)CC(=O)N1` (configuration not stated), the IC50 cell viability was > 10 µM.

`COc1cc(C=NNc2ncnc3c2cnn3Cc2ccccc2)ccc1O`: the IC50 cell viability is > 10 µM.

Turning to `c1ccc(Oc2ccc(Nc3ncc(-c4ccccc4)o3)cc2)cc1`, the IC50 cell viability is > 10 µM.

Regarding `Cc1cc(O)cc(C)c1/C=C/c1cncc(C(=O)N(C)C)c1`, the IC50 cell viability was > 10 µM.

For `O=C1NC(=O)C(c2ccccc2Cl)=C1Nc1cccc(O)c1`, the IC50 cell viability stood at 2 µM.

`CCN1CCC(C(=O)Nc2n[nH]c3nnc(-c4cccc(F)c4F)cc23)CC1`: the IC50 cell viability was > 10 µM.

In the case of `O=S(=O)(CCNCc1ccc(-c2ccc3ncnc(Nc4ccc(OCc5cccc(F)c5)c(Cl)c4)c3c2)o1)c1ccccc1`, the IC50 cell viability was > 10 µM.

On to `CNC(=O)c1cncc(/C=C/c2ccccc2Cl)c1`, for which the IC50 cell viability is > 10 µM.

For `Cc1ccc(O)cc1Nc1ccnc2cc(-c3ccccn3)ccc12`, the IC50 cell viability is > 10 µM.

As for `CCOc1ccc2c(-c3ccnc(Nc4cc(OC)cc(C(F)(F)F)c4)n3)cnn2n1`, the IC50 cell viability was > 10 µM.

For `C[C@@H](Oc1cc(-n2cnc3ccc(OC[C@@H](O)CO)cc32)sc1C(N)=O)c1ccccc1Cl`, the IC50 cell viability amounted to 5.4 µM.

Regarding `Cc1ccc(NC(=O)c2ccnc(N3CCCC3)c2)cc1-c1ccc(C(=O)NCC2CC2)cc1`, the IC50 cell viability was > 10 µM.

For `O=C(Nc1ccc(Oc2ccc3nc(NC(=O)c4ccco4)[nH]c3c2)cc1)Nc1cc(C(F)(F)F)ccc1F`, the IC50 cell viability was > 10 µM.

Take `Cc1ccc2c(-c3ccnc(Nc4cccc(C(F)(F)F)c4)n3)c(-c3ccccc3)nn2n1`: the IC50 cell viability is > 10 µM.

As for `O=C1NC(=O)C(c2ccc(Cl)cc2)=C1Nc1ccc(Cl)c(C(=O)O)c1`, the IC50 cell viability stood at 3.9 µM.

Turning to `Cc1nnc(-c2cccc(-c3ccc(C(=O)NCC4CC4)cc3)c2)o1`, the IC50 cell viability was > 10 µM.

Consider `Cc1nc(-c2ccccc2)n2nc(NCCCN3CCOCC3)ncc12`, for which the IC50 cell viability is > 10 µM.

As to `CC(=O)NCc1cccc(C#Cc2cncnc2Nc2ccc(OCc3cccc(F)c3)c(Cl)c2)c1`, the IC50 cell viability was > 10 µM.

As for `Fc1ccc(-c2nc3n(c2-c2ccncc2)CCS3)cc1`, the IC50 cell viability is > 10 µM.

As to `CCn1c(-c2nonc2N)nc2c(C#CC(C)(C)O)nc(OC[C@@H](N)c3ccccc3)cc21`, the IC50 cell viability is > 10 µM.

Consider `CCS(=O)(=O)c1ccc(OC)c(Nc2ncc(-c3ccccc3Cl)o2)c1`, for which the IC50 cell viability is > 10 µM.

As for `CN(C)C(=O)O[C@H]1CN[C@H](C#Cc2cc3ncnc(Nc4ccc(OCc5cccc(F)c5)c(Cl)c4)c3s2)C1`, the IC50 cell viability is > 10 µM.

Turning to `COc1cc(Nc2ncc(-c3ccccc3)o2)cc(OC)c1OC`, the IC50 cell viability was > 10 µM.

For the compound `Nc1ncnc2occ(-c3ccc(NC(=O)Nc4cccc(C(F)(F)F)c4)cc3)c12`, the IC50 cell viability amounted to 5.2 µM.

For `c1ccc(-c2nc3n(c2-c2ccc4c(c2)OCO4)CCC3)nc1`, the IC50 cell viability was > 10 µM.

Take `COc1ccc(-c2cc3c(N)ncnc3o2)cc1`: the IC50 cell viability was > 10 µM.

On to `Cc1nn(C)c2cc(N(C)c3ccnc(Nc4cccc(S(N)(=O)=O)c4)n3)ccc12`, for which the IC50 cell viability was > 10 µM.

`Fc1ccc(-c2ncn(C3CCNCC3)c2-c2ccnc(Oc3ccccc3)n2)cc1`: the IC50 cell viability is 3.3 µM.

With `CCC(=O)Nc1ccc(C)c(-c2ccc(C(=O)NCC3CC3)cc2)c1`, the IC50 cell viability was > 10 µM.

Regarding `c1ccc(-c2[nH]ncc2-c2ccnc(-c3ccc(OCCn4ccnc4)cc3)c2)nc1`, the IC50 cell viability was > 10 µM.

As to `Cc1cc(-c2ccco2)cc(C)c1/C=C/c1cncc(-c2nn[nH]n2)c1`, the IC50 cell viability is > 10 µM.

On to `CCN(CC)S(=O)(=O)c1ccc(OC)c(Nc2ncc(-c3ccccc3)o2)c1`, for which the IC50 cell viability is > 10 µM.

Turning to `COc1cccc(-n2ncc3c(N/N=C/c4cccc(F)c4)ncnc32)c1`, the IC50 cell viability is > 10 µM.

Take `COC(=O)Nc1nc2ccc(Sc3ccc(NC(=O)Nc4cc(C(F)(F)F)ccc4F)cc3)cc2[nH]1`: the IC50 cell viability is > 10 µM.

For the compound `OCc1ccc(-c2nc(-c3ccc4c(c3)OCO4)c(-c3ccccn3)[nH]2)cc1`, the IC50 cell viability is > 10 µM.

Take `Cc1nnc(-c2ccc(C)c(-c3ccc(C(=O)NCc4ccc(Cl)cc4)cc3)c2)o1`: the IC50 cell viability was > 10 µM.

Turning to `CCn1c(-c2nonc2N)nc2c(C#CC(C)(C)O)ncc(OC3CCNCC3)c21`, the IC50 cell viability is > 10 µM.

As for `Nc1nc(-c2ccc3c(c2)C(=Cc2cc(Br)c(O)c(Br)c2)C(=O)N3)cs1`, the IC50 cell viability is > 10 µM.

On to `CS(=O)(=O)Nc1ccc(-c2ccc3c(NC(=O)C4CC4)n[nH]c3c2)cc1`, for which the IC50 cell viability is > 10 µM.

(Values after the supplement of paper PMC6580486.)
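Note: alveolar rhabdomyosarcoma tumor culture.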
